# Test results as given in article PMC11667158, “Flexible fluorine-thiol displacement stapled peptides with enhanced membrane penetration for the estrogen receptor/coactivator interaction” (The Journal of Biological Chemistry, 2024).
# Legend:
# [1] = Circular dichroism, percent α helicity; format: physicochemical; details: CD, 222 nm MRE, 50 μM peptide, room temperature
# Description: CD spectra were obtained using a J-815 CD spectrometer (Jasco) using the wavelength range of 190 to 260 nm. Spectra were collected in a 10 mm quartz cuvette and each spectrum represents the accumulation of three solvent-blank subtracted runs. Data were collected using the following system parameters: bandwidth of 1.00 nm, digital integration time of 2 s, pitch of 1.0 nm, and a scan speed of 50 nm/min. Data underwent minimal adaptive smoothing, and all the related spectra were taken at room temperature under inert nitrogen flow. Peptides were solubilized to 50 μM in either Milli-Q water, 45 mM sodium phosphate buffer (pH 7.4), 30 mM SDS (pH 7.4), or 50% (v/v) TFE. Percentage of α helicity was calculated based on the ellipticity value at 222 nm as done previously ([25], [63]), following the equation α helicity (%)=([ϴ]obs222-[ϴ]0)/([ϴ]max222-[ϴ]0) where [ϴ]max222 = (−44,000 + 250T) (1-x/n), [ϴ]0 = […], T = 20 °C, x = 3, n = number of residues ([25], [63]).
# MCF-7 ER + cells = assay: Soft agar colony formation assay (anchorage independent growth); format: cell-based; details: MCF-7, E2 1 nM, peptide 20 μM, 14 to 18 days
# Description: Figure 6 Soft agar colony formation assay. (A) soft agar average colony size and (B) average colony formation in MCF-7 ER + cells assessed in the presence of vehicle (EtOH), E2 (1 nM), and the indicated peptide treatments (WT, LL, or LD) at 20 μM. Graphed data represent the mean ± SD (n = 6). An ordinary one-way ANOVA was used to assess statistical significance where ‘∗’ indicates p < 0.05, ‘∗∗’ indicates p < 0.01, ‘∗∗∗’ indicates p < 0.001. ER, estrogen receptor.
# Cells were seeded (1.5 × 10^4 cells/well) in 1X sterile low melt agarose (Life Technologies) containing 5% dextran-coated charcoal and the appropriate treatment. Soft agar assays were allowed to proceed for 14 to 18 days at 37 °C. Afterward, cell colonies were stained with 0.005% crystal violet in PBS. Colony number and colony size were analyzed with ImageJ (Wayne Rasband, National Institutes of Health, http://rsbweb.nih.gov/ij/). Data are presented as the average ± SD of six independent measurements.
# [2] = target: SRC2-LD, FTDR-stapled, FITC-labelled; assay: fluorescence polarisation; saturation fluorescence anisotropy; ERα-LBD serially diluted to 0.4-7500 nM with 17β-estradiol at four equivalents to ERα; FITC-peptide 50 nM; 10 mM Hepes pH 7.4, 50 mM EDTA, 150 mM NaCl, 0.005% Tween-20; 96-well plates
# [3] = target: SRC2-LL, FTDR-stapled, FITC-labelled; assay: as above
Substance,"α-helicity (%) ([1]; 30 mM SDS micellar solution, pH 7.4)","α-helicity (%) ([1]; 45 mM sodium phosphate buffer, pH 7.4)","α-helicity (%) ([1]; 50% (v/v) TFE in water, pH 7.4)",α-helicity (%) ([1]; Water),downregulation of colony size compared to the vehicle (MCF-7 ER + cells),average colony size (MCF-7 ER + cells; n = 6),fold increase in Kd against SRC2-RCM [2],fold increase in Kd against SRC2-RCM [3]
HKILHRLLQDS [SRC2-WT],57.9%,17%,84%,12.8%,19%,"10,193 μm^2",–,–
estrogen receptor α ligand-binding domain (domain or fragment),–,–,–,–,–,–,1.2 fold,1.5 fold
